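Values below derive from 48-hour exposures of cells grown in 96-well plates, with endpoints linearly interpolated between the two concentrations bracketing the appropriate inhibition level. TGI marks complete inhibition of growth.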
Tests used:
Assay in all cases: inhibition of tumour cell growth, NCI panel, 48 h
[1] = system: DLD-1 colon
[2] = system: DMS 114 small cell lung
[3] = system: HCC-2998 colon
[4] = system: KM20L2 colon
[5] = system: LXFL 529 NSCLC
[6] = system: M19-MEL melanoma
[7] = system: NCI-H460 lung
[8] = system: SNB-19 CNS
[9] = system: SNB-78 CNS
[10] = system: UACC-62 melanoma
[11] = system: DMS 273 small cell lung

Row | Compound | TGI [1] [µM] | TGI [2] [µM] | TGI [3] [µM] | TGI [4] [µM] | TGI [5] [µM] | TGI [6] [µM] | TGI [7] [µM] | TGI [8] [µM] | TGI [9] [µM] | TGI [10] [µM] | TGI [11] [µM]
1 | N#CN=C(N(Cc1ccccc1)Cc1ccccc1)N(Cc1ccccc1)Cc1ccccc1 | > 100 | > 100 | > 100 | > 100 | > 100 | > 100 | > 100 | > 100 | > 100 | > 100 | –
2 | Clc1cc(OC2C3CC4CC(C3)CC2C4)nc(Cl)n1 (configuration not stated) | – | – | 4.28 | – | – | – | 31.6 | > 100 | – | 24.7 | –
3 | Oc1cccc2c(Cl)ccnc12 | – | – | 14.9 | – | – | – | > 100 | > 100 | – | 8.45 | –
4 | O=C(O)c1cccc2c1/C(=N/Nc1ccccc1)CC2 | – | – | > 100 | – | – | – | > 100 | – | – | – | –
5 | CC[C@@]1(C[C@H]2C[C@@]3(C(=O)OC)c4[nH]c5ccccc5c4CCN3C2=O)COC2(CCCCC2)O1 | – | – | 62.1 | – | – | – | > 100 | > 100 | – | > 100 | –
6 | Nc1cccc2cc(Cl)cnc12 | – | – | > 100 | – | – | – | > 100 | > 100 | – | > 100 | –
7 | O=C(CCC(=O)c1ccc(Cl)cc1)NO | – | – | > 100 | – | – | – | > 100 | > 100 | – | > 100 | –
8 | CCNC(=S)N/N=C/c1cc([N+](=O)[O-])ccc1O | – | – | > 100 | – | – | – | > 100 | > 100 | – | 93.9 | –
9 | CNC(=O)OCC1=C(COC(=O)NC)C(C)N(c2ccc(OC)cc2)C1 (configuration not stated) | – | – | – | – | – | – | > 100 | > 100 | – | 57.3 | –
10 | CC(N)Cc1ccc(C(=O)Cl)cc1 (configuration not stated) | > 100 | > 100 | > 100 | > 100 | > 100 | > 100 | > 100 | – | – | > 100 | –
11 | O=C(Cc1cccs1)N[C@@H]1C(=O)N2C(C(=O)OC(c3ccccc3)c3ccccc3)=C(CO)CS[C@H]12 | – | – | > 100 | – | – | – | > 100 | – | – | > 100 | –
12 | CC1=C(C)[C@@]2(C)O[C@@]2(C)O[C@@]2(C)O[C@@]12C | – | – | – | – | – | – | – | > 100 | – | > 100 | –
13 | C=C(Br)C(C)(Cl)CCC(Br)C(C)(C)Cl (configuration not stated) | – | – | > 100 | – | – | – | > 100 | > 100 | – | > 100 | –
14 | NC(=O)C(c1ccccc1)N1OC2C(=O)N(c3ccccc3)C(=O)C2C1c1c2ccccc2c(Cl)c2ccccc12 (configuration not stated) | – | – | – | – | – | – | – | > 100 | – | > 100 | –
15 | CN1CCN([C@H]2C[C@H]3[C@@H]4CC=C5C[C@@H](O)CC[C@]5(C)[C@H]4CC[C@]3(C)C2=O)CC1 | – | – | > 100 | – | – | – | > 100 | > 100 | – | > 100 | –
16 | Cc1cn(C2CC(N(O)C(N)=O)C(CO)O2)c(=O)[nH]c1=O (configuration not stated) | – | – | – | – | – | – | – | > 100 | – | > 100 | –
17 | O=C(NNC(=O)c1ccccc1SSc1ccccc1C(=O)NNC(=O)c1ccccc1S)c1ccccc1S | – | – | > 100 | – | – | – | > 100 | > 100 | – | 54.8 | –

Row | Compound | TGI [1] [µM] | TGI [2] [µM] | TGI [3] [µM] | TGI [4] [µM] | TGI [5] [µM] | TGI [6] [µM] | TGI [7] [µM] | TGI [8] [µM] | TGI [9] [µM] | TGI [10] [µM] | TGI [11] [µM]
18 | C=C(C1=CC(=O)C(C)(C)O1)[C@@H]1CC=C([C@@H]2CC[C@H]3[C@@]2(C)CC[C@H]2C(C)(C)C(=O)[C@H](O)C[C@]32C)[C@H](O)O1 | – | – | 7.49 | – | – | – | 31.6 | 24.8 | – | 14.9 | –
19 | Cc1cc(=O)[nH]c(NN2C(Cl)C(=O)C2c2ccccc2O)n1 (configuration not stated) | – | 6.44 | > 100 | > 100 | 54.5 | > 100 | > 100 | > 100 | > 100 | > 46.7 | 15.3
20 | FC(F)(F)c1cc(Cl)cnc1N/N=C(/c1ccccc1)c1ccccn1 | – | – | > 100 | – | – | – | 15 | > 100 | – | 13.2 | –
21 | COc1ccc(/C=C2\CCC(C)C3=C2NC(=S)NC3c2ccc(OC)c(OC)c2)cc1OC (configuration not stated) | – | – | > 100 | – | – | – | > 100 | > 31.6 | – | > 31.6 | –
22 | Cc1cc(O)c2c(=O)c3ccccc3[nH]c2c1 | – | – | > 100 | – | – | – | > 100 | > 100 | – | – | –
23 | O=C(O)CN(CC(=O)O)C1CCCCC1N(CC(=O)O)CC(=O)NCCN=C=S (configuration not stated) | – | – | > 100 | – | – | – | > 100 | > 100 | – | > 100 | –
24 | Oc1cc2c3c(c1)c1cc4c(cc1c[n+]3CC2)OCO4 | – | – | 25.9 | – | – | – | > 23.9 | 10.2 | – | 28.8 | –
25 | C=C1c2nc3ccccc3n2C=C(c2ccccc2)N1c1ccc([N+](=O)[O-])cc1 | – | – | > 23.2 | – | – | – | 6.6 | 24.4 | – | 32.3 | –
26 | COC(=O)[C@H]1CO[C@@H](C(C)(C)C)N1C(=O)N1C=CC(=O)C[C@@H]1C | – | – | – | – | – | – | – | – | – | > 100 | –
27 | Cc1cccc(/C=N/NC(=S)Nc2ccccc2)n1 | – | – | > 61.6 | – | – | – | 9.13 | 98.3 | – | 12.5 | –
28 | O=C1c2ccccc2C2C1N2C(=O)C(F)(F)F (configuration not stated) | > 100 | > 100 | – | > 100 | > 100 | > 100 | > 100 | > 100 | – | > 100 | > 100
29 | O=C1C(=Cc2ccc(O)cc2)N=C(c2ccccc2)N1n1c(-c2ccccc2)nc2ccccc2c1=O | – | – | > 100 | – | – | – | – | > 100 | – | > 100 | –
30 | O=[N+]([O-])/C(C(Cl)=C(Cl)Cl)=C(\SCc1ccccc1)N1CCCCC1 | – | – | 45.7 | – | – | – | 78 | > 100 | – | 72 | –
31 | N=c1n(C(=O)N2CCCC2)c2cc(Cl)ccc2n1C1=NCCN1 | – | – | > 100 | – | – | – | > 100 | > 100 | – | > 100 | –
32 | COc1ccc2c(=O)c(O)c(-c3ccc(OC)c(OC)c3)oc2c1 | – | – | > 100 | – | – | – | > 100 | > 100 | – | > 100 | –
33 | C(/c1ccco1)=c1/nc(-c2ccccc2)n2c1nc1ccccc12 | – | – | – | – | – | – | > 100 | > 100 | – | > 100 | –

From PubChem BioAssay (NCI)
